From patent US20080193986A1, “Mutant strain of Amycolatopsis orientalis and process for preparing vancomycin hydrochloride” (priority 2007, published 2008) come the findings set out here.

Structures can show the parent of a compound that is named as a salt.

Series [1] in a line: Antimicrobial activity by analysis based on U.S. Pharmacopeia 28. To be noted: dried vancomycin hydrochloride of Example 9. The protocol:
(§1) Next, chilled absolute ethanol was added to the concentrate drop by drop until vancomycin hydrochloride was crystallized, the slurry was left in refrigerator for 12 hours to accelerate the crystallization, and then the slurry was filtered off. The filtered precipitate was dried in a vacuum dryer at 40° C. […] The analytical results are illustrated in FIG. 3 and FIG. 4.

Series [2] is described as follows: Solubility of dried powder. The format is physicochemical. To be noted: dried vancomycin hydrochloride of Example 9. The protocol: as §1

As to `CN[C@H](CC(C)C)C(=O)N[C@H]1C(=O)N[C@@H](CC(N)=O)C(=O)N[C@H]2C(=O)N[C@H]3C(=O)N[C@H](C(=O)N[C@H](C(=O)O)c4cc(O)cc(O)c4-c4cc3ccc4O)[C@H](O)c3ccc(c(Cl)c3)Oc3cc2cc(c3O[C@@H]2O[C@H](CO)[C@@H](O)[C@H](O)[C@H]2O[C@H]2C[C@](C)(N)[C@H](O)[C@H](C)O2)Oc2ccc(cc2Cl)[C@H]1O` [vancomycin hydrochloride], in series [1], the antimicrobial activity was 1050 U. Moreover, in series [2], the solubility of powder entry is on record as “freely soluble”.
